Measurements taken from patent publication US5049637A, “1,2,3,4,10,14b-hexahydrodibenzo[c,f]pyrazino-[1,2-a]azepino derivatives and 10-aza, 10-oxa and 10-thia analogues” (Monash University, priority 1987, dated 1991).
Structures can show the parent of a compound that is named as a salt.

Tests used:
[1] = tested on: isolated guinea pig ileum (KCl-induced contractions); experiment: Block of KCl-induced contraction of the isolated guinea-pig ileum; conditions: block of contractions of isolated guinea pig ileum induced by KCl
Description: (§1) Compounds according to formula I were tested for their ability to block contractions of the isolated guinea pig ileum induced by KCl, carbachol, or histamine at a concentration of 10^-7 M. Ileum preparations were prepared according to standard methodology. The concentrations shown are the minimum required to show activity.

[2] = tested on: isolated guinea pig ileum (carbachol-induced contractions); experiment: Block of carbachol-induced contraction of the isolated guinea-pig ileum; conditions: block of contractions of isolated guinea pig ileum induced by carbachol
Description: as §1

[3] = tested on: isolated guinea pig ileum (histamine-induced contractions); experiment: Block of histamine-induced contraction of the isolated guinea-pig ileum; conditions: for minimal effective concentration: Cavia porcellus, isolated guinea pig ileum, histamine 10^-7 M, read-out: Effect on Histamine: minimum concentration required to show activity; for Effect on Histamine: block of contractions of isolated guinea pig ileum induced by histamine at 10^-7 M
Description: (§2) The compound of Example 2 was found in low concentrations to inhibit contractions of the guinea-pig isolated ileum and rat isolated stomach strip caused by histamine and 5-hydroxytryptamine respectively. […] Concomitantly, the depressor effects of histamine were blocked, as were the pressor effects of 5-hydroxytryptamine for over 30 minutes. The pressor effects of 5-hydroxytryptamine in anaesthetised and pithed rats were inhibited by intravenous doses of 0.3-1.0 mg/kg body weight. Slightly higher doses reduced the bradycardia and the depressor response (the Bezold-Jarisch reflex mediated by 5-HT3 receptors) to 5-hydroxytryptamine in anaesthetised rats. The drug inhibited oedema in the rat paw caused by intraplantar 5-hydroxytryptamine. […] In mice it inhibited diarrhoea caused by L-5-hydroxytryptophan. In guinea pigs, intravenous doses of 0.03 mg/kg and above reduced the bronchoconstrictor effects of histamine and 5-hydroxytryptamine.
as §1

[4] = tested on: bronchoconstrictor effects of histamine and 5-hydroxytryptamine; experiment: Histamine and 5-hydroxytryptamine induced bronchoconstriction in guinea pigs; assay type: in vivo, guinea pig; conditions: Cavia porcellus, intravenous, read-out: Intravenous dose reducing histamine and 5-hydroxytryptamine bronchoconstriction
Description: as §2
In cats, the effects of the ganglion stimulant McNeil -A-343 and histamine were reduced. Following intravenous injection into guinea-pigs, […] reduced histamine and 5-hydroxytryptamine induced broncho-constriction. Concentrations of 1 μg/ml or greater relaxed the isolated rat uterus in vitro.
The compound of Example 4 when injected into rats at intravenous doses of 0.3 mg/kg or greater reduced the pressor effects of 5-hydroxytryptamine and also the depressor effects of histamine. In cats, the effect of histamine was reduced after these doses also.
(§3) Thus doses of 1 mg/kg given intraperitoneally attenuated the facilitation of spinal reflex activity caused by p-chloroamphetamine, and also the facilitation of spinal reflexes induced by fenfluramine in spinal and decerebrate rats. […] The drug in doses of 10 and 20 mg/kg intraperitoneally and in doses of 20 mg/kg by mouth attenuated morphine-induced catalepsy. We conclude therefore that this drug is an orally active drug with central actions, particularly affecting serotonergic mechanisms, but has no effect in vitro (Table 1). […] Thus it was found after intravenous doses of 0.03 mg/kg to reduce histamine and 5-hydroxytryptamine bronchoconstriction in the guinea pig.

[5] = tested on: central nervous system (morphine induced catalepsy); experiment: Morphine induced catalepsy in the rat; assay type: in vivo
Description: as §3

[6] = tested on: spinal reflex activity (serotonergic mechanisms); experiment: Facilitation of spinal reflexes by p-chloroamphetamine, fenfluramine or clonidine in spinal and decerebrate rats; assay type: in vivo, rat
Description: as §3

[7] = tested on: effects of histamine and 5-hydroxytryptamine on blood pressure and heart rate; experiment: Effects of histamine and 5-hydroxytryptamine on blood pressure and heart rate in the chloral-anaesthetized rat; assay type: in vivo
[8] = Penetration into the central nervous system; assay type: in vivo; conditions: in vivo
[9] = tested on: central nervous system (spinal flexor reflex); experiment: Spinal flexor reflex in the rat; assay type: in vivo; conditions: mianserin in low doses
[10] = tested on: central nervous system (L-5-hydroxytryptophan-induced head twitch); experiment: L-5-hydroxytryptophan-induced head twitch in the mouse; assay type: in vivo; conditions: mianserin in low doses

Structure (SMILES)	Effect on KCl [1]	Effect on Carbachol [2]	minimal effective concentration [3]	Effect on Histamine [3]	also measured
NC(=O)N1CCN2c3ccccc3Cc3ccccc3C2C1 (stereo not drawn) [Example 5, 2-Carboxamido-1,2,3,4,10,14b-hexahydrodibenzo [c,f]pyrazino[1,2-a]azepine]	- (no effect)	- (no effect)	0.01 to 0.1 µM	++	minimal effective dose [4]: 0.03 mg/kg; Morphine-induced catalepsy ([5]; 20 mg/kg by mouth): attenuated; Morphine-induced catalepsy ([5]; 10 and 20 mg/kg intraperitoneally): attenuated; Facilitation of spinal reflex activity caused by p-chloroamphetamine ([6]; 1 mg/kg intraperitoneally): attenuated; Facilitation of spinal reflexes induced by fenfluramine ([6]; 1 mg/kg intraperitoneally, spinal and decerebrate rats): attenuated; Facilitation of spinal reflexes caused by clonidine ([6]; at these dose levels (1 mg/kg intraperitoneally)): did not antagonise
CCNC(=NC#N)N1CCN2c3ccccc3Cc3ccccc3C2C1 (stereo not drawn) [Example 7, 2-(N-Cyano-N'-ethyl-carboxamidino)-1,2,3,4,10,14b-hexahydrodibenzo[c,f]pyrazino[1,2-a]azepine]	- (no effect)	- (no effect)	0.01 to 0.1 µM	++	
N=C(NCCOc1ccccc1)N1CCN2c3ccccc3Cc3ccccc3C2C1 (stereo not drawn) [Example 9, 2-(N-2-Phenoxyethylcarboxamidino)-1,2,3,4,10,14b-hexahydrodibenzo[c,f]pyrazino[1,2-a]azepine hydrochloride]	- (no effect)	- (no effect)	0.01 to 0.1 µM	++	
CCNC(=O)N1CCN2c3ccccc3Cc3ccccc3C2C1 (stereo not drawn) [Example 10, 2-(N-Ethylcarboxamido)-1,2,3,4,10,14b-hexahydrodibenzo[c,f]pyrazino[1,2-a]azepine]	- (no effect)	- (no effect)	0.1 µM	+ (block)	
CCNC(=N)N1CCN2c3ccccc3Cc3ccccc3C2C1 (stereo not drawn) [Example 11, 2-(N-Ethylcarboxamidino)-1,2,3,4,10,14b-hexahydrodibenzo[c,f]pyrazino[1,2-a]azepine hydrochloride]	- (no effect)	- (no effect)	0.01 to 0.1 µM	++	Block of effect on heart rate of both histamine and 5-hydroxytryptamine [7]: not; Effect on blood pressure of both histamine and 5-hydroxytryptamine [7]: complete block
CCNC(=S)N1CCN2c3ccccc3Cc3ccccc3C2C1 (stereo not drawn) [Example 12, 2-(N-Ethylthiocarboxamido)-1,2,3,4,10,14b-hexahydrodibenzo[c,f]pyrazino[1,2-a]azepine]	- (no effect)	- (no effect)	0.01 to 0.1 µM	++	
NC(=O)CN1CCN2c3ccccc3Cc3ccccc3C2C1 (stereo not drawn) [Example 13, 2-(Carboxamidomethyl)-1,2,3,4,10,14b-hexahydrodibenzo [c,f]pyrazino[1,2-a]azepine hydrochloride]	- (no effect)	- (no effect)	0.01 to 0.1 µM	++	Ability to penetrate into the CNS [8]: able to penetrate into the CNS
NC(=O)CCN1CCN2c3ccccc3Cc3ccccc3C2C1 (stereo not drawn) [Example 14, 2-(2-Carboxamidoethyl)-1,2,3,4,10,14b-hexahydrodibenzo[c,f]pyrazino[1,2-a]azepine]	- (no effect)	- (no effect)	0.01 to 0.1 µM	++	Ability to penetrate into the CNS [8]: able to penetrate into the CNS
CN1CCN2c3ccccc3Cc3ccccc3C2C1 (stereo not drawn) [mianserin, 1,2,3,4,10,14b-hexahydro-2-methyldibenzo [c,f]pyrazino[1,2-a]azepine, reference compound]					Action in spinal flexor reflex test [9]: effective; Action in morphine induced catalepsy test ([5]; rat, mianserin in low doses): effective; Action in L-5-hydroxytryptophan-induced head twitch test [10]: effective
